Data taken from patent US7928239B2, “Inhibition of RAF kinase using quinolyl, isoquinolyl or pyridyl ureas” (Bayer Healthcare LLC, priority 1999, dated 2011).

Row | melting point [°C] | Compound
1 | 238 to 245 | CNC(=O)c1ccc(Oc2ccc(NC(=O)Nc3ccc(Cl)c(C(F)(F)F)c3)cc2)cn1 [Entry 56, N-(4-chloro-3-(trifluoromethyl)phenyl)-N′-(4-(2-(N-methylcarbamoyl)-5-pyridyloxy)phenyl) urea]
2 | 125 to 130 | CNC(=O)c1cc(Oc2ccc(NC(=O)Nc3ccc(Oc4ccnc(C(=O)NC)c4)cc3)cc2)ccn1 [Entry 103, bis(4-(2-(N-methylcarbamoyl)-4-pyridyloxy)phenyl) urea]
